Patent publication US20230016424A1, “HYBRID AMIDE DERIVATIVES OF AMPHOTERICIN B” (The Board of Trustees of the University of Illinois, priority 2019, published 2023)
≈ marks a conversion by molar mass, not a printed value.

How the values were obtained:
A. fumigatus 1163 = assay: MIC; format: cell-based
C. tropicalis = assay: MIC; format: cell-based
C. albicans = assay: MIC; format: cell-based
A. fumigatus 91 = assay: MIC; format: cell-based
[1] = system: C. albicans SN250, C. albicans, C. krusei, C. glabrata, C. tropicalis, A. fumigatus 91, 1163, 1100; assay: Average MIC over the tested strains; format: cell-based; details: for MIC: average over the 8 listed strains; for Average MIC: Tables 8 and 9, average over the 8 listed strains
C. krusei = assay: MIC; format: cell-based
A. fumigatus 1100 = assay: MIC; format: cell-based
C. albicans SN250 = assay: MIC; format: cell-based, Candida albicans
C. glabrata = assay: MIC; format: cell-based
Plasma Stability = format: in vitro ADME
Experimental: Plasma Stability: Procedure: […] Plasma was warmed to 37° C. prior to the experiment and centrifuged for 5 mins at 4000 rpm. […] Each time point was monitored in triplicate (0, 10, 30, 60 and 120 min). 4 uL/well aliquot of the working solution was mixed to the blank plasma and incubated at 37° C. AT each time point samples were quenched with ACN stop solution containing 200 ng/ml Tolbutamide & 200 ng/ml Labetalol at 1:3 ratio and mix well on shaker for 10 min then centrifuge at 4000 rpm for 15 min. A 100 ul aliquot of supernatant was mixed with 100 μL of ultra-pure and submitted for LC-MS/MS analysis.

[2] = Liver Microsome stability (In Vitro Metabolism); format: in vitro ADME; details: for Remaining (T = NCF60 min): no cofactor 60 min
Experimental: Working Compound solution: 10 uM in 50 mM potassium phosphate buffer with 9% MeOH and 1% DMSO
Microsome solution: working concentration 0.625 mg/ml
Stopping solution: Cold ACN with 200 ng/ml Tolbutamide and 200 ng/ml Labetalol (4° C.)
Procedure: In the well plates (T5, T10, T20, T30, T60, NCF60 (no cofactor 60)) 10 uL of the compound/control working solution was added (except T0 and matric blank) followed by microsome solution (80 uL) and the mixture was incubated at 37 C for about 10 mins. A solution of potassium phosphate (10 ul of 50 mM) was added to NCF60 well, incubated at 37 C and time counting started. After prewarming 10 ul of NADPH regenerating solution was added to each plate to start the reaction. At different time point 300 uL/well of stopping solution to terminate the reaction. The sampling plates were shaken for 10 mins and the centrifuged for 20 mins at 4000 rpm. The supernatant was half diluted with ultra pure water and the analyzed using LCMS.

CC1C=CC=CC=CC=CC=CC=CC=CC(OC2OC(C)C(O)C(N)C2O)CC2OC(O)(CC(O)CC(O)C(O)CCC(O)CC(O)CC(=O)OC(C)C(C)C1O)CC(O)C2C(=O)NCC(O)CO (mixture of isomers) [AJ]
MIC A. fumigatus 1163 (A. fumigatus 1163): 0.3 µM
MIC C. tropicalis (C. tropicalis): 0.2 µM
MIC C. albicans (C. albicans): 0.20 µM
MIC A. fumigatus 91 (A. fumigatus 91): 1 µM
MIC [1]: 0.329 µM
MIC C. krusei (C. krusei): 0.3 µM
MIC A. fumigatus 1100 (A. fumigatus 1100): 0.4 µM
MIC C. albicans SN250 (C. albicans SN250): 0.15 µM
MIC C. glabrata (C. glabrata): 0.08 µM

CC1C=CC=CC=CC=CC=CC=CC=CC(OC2OC(C)C(O)C(N)C2O)CC2OC(O)(CC(O)CC(O)C(O)CCC(O)CC(O)CC(=O)OC(C)C(C)C1O)CC(O)C2C(=O)NCCS (centres unmarked) [AB]
MIC A. fumigatus 1163 (A. fumigatus 1163): 1 µM (≈ 0.983 µg/mL)
MIC C. tropicalis (C. tropicalis): 0.45 µM (≈ 0.442 µg/mL)
MIC C. albicans (C. albicans): 0.45 µM (≈ 0.442 µg/mL)
MIC A. fumigatus 91 (A. fumigatus 91): 1 µM (≈ 0.983 µg/mL)
MIC [1]: 0.706 µM
MIC C. krusei (C. krusei): 1 µM (≈ 0.983 µg/mL)
MIC A. fumigatus 1100 (A. fumigatus 1100): 1 µM (≈ 0.983 µg/mL)
MIC C. albicans SN250 (C. albicans SN250): 0.4 µM (≈ 0.393 µg/mL)
MIC C. glabrata (C. glabrata): 0.35 µM (≈ 0.344 µg/mL)

CC(CO)NC(=O)C1C(O)CC2(O)CC(O)CC(O)C(O)CCC(O)CC(O)CC(=O)OC(C)C(C)C(O)C(C)C=CC=CC=CC=CC=CC=CC=CC(OC3OC(C)C(O)C(N)C3O)CC1O2 (centres unmarked) [AC]
MIC A. fumigatus 1163 (A. fumigatus 1163): 1 µM (≈ 0.981 µg/mL)
MIC C. tropicalis (C. tropicalis): 0.35 µM (≈ 0.343 µg/mL)
MIC C. albicans (C. albicans): 0.3 µM (≈ 0.294 µg/mL)
MIC A. fumigatus 91 (A. fumigatus 91): 2 µM (≈ 1.96 µg/mL)
MIC [1]: 0.713 µM
MIC C. krusei (C. krusei): 0.45 µM (≈ 0.442 µg/mL)
MIC A. fumigatus 1100 (A. fumigatus 1100): 1 µM (≈ 0.981 µg/mL)
MIC C. albicans SN250 (C. albicans SN250): 0.3 µM (≈ 0.294 µg/mL)
MIC C. glabrata (C. glabrata): 0.3 µM (≈ 0.294 µg/mL)

CC1C=CC=CC=CC=CC=CC=CC=CC(OC2OC(C)C(O)C(N)C2O)CC2OC(O)(CC(O)CC(O)C(O)CCC(O)CC(O)CC(=O)OC(C)C(C)C1O)CC(O)C2C(=O)NCCN (centres unmarked) [AM]
% Remaining at 120 min (Plasma Stability; Human Plasma): 102%
Half Life (Plasma Stability; Human Plasma): >4.82 h
% Remaining at 120 min (Plasma Stability; Rat Plasma): 118%
Half Life (Plasma Stability; Rat Plasma): >4.82 h
CL ([2]; Dog liver microsomes): <9.6 µL/min/mg
CLint ([2]; Dog liver microsomes): <14 mL/min/kg
Remaining (T = 60 min) ([2]; Dog liver microsomes): 107%
T1/2 ([2]; Dog liver microsomes): >2.42 h
Remaining (T = NCF60 min) ([2]; Dog liver microsomes): 109%
CL ([2]; Human liver microsomes): <9.6 µL/min/mg
CLint ([2]; Human liver microsomes): <8.6 mL/min/kg
Remaining (T = 60 min) ([2]; Human liver microsomes): 101%
T1/2 ([2]; Human liver microsomes): >2.42 h
Remaining (T = NCF60 min) ([2]; Human liver microsomes): 115%
CL ([2]; Monkey liver microsomes): <9.6 µL/min/mg
CLint ([2]; Monkey liver microsomes): <13 mL/min/kg
Remaining (T = 60 min) ([2]; Monkey liver microsomes): 113%
T1/2 ([2]; Monkey liver microsomes): >2.42 h
Remaining (T = NCF60 min) ([2]; Monkey liver microsomes): 121%
CL ([2]; Mouse liver microsomes): <9.6 µL/min/mg
CLint ([2]; Mouse liver microsomes): <38 mL/min/kg
Remaining (T = 60 min) ([2]; Mouse liver microsomes): 109%
T1/2 ([2]; Mouse liver microsomes): >2.42 h
Remaining (T = NCF60 min) ([2]; Mouse liver microsomes): 176%
CL ([2]; Rat liver microsomes): <9.6 µL/min/mg
CLint ([2]; Rat liver microsomes): <17 mL/min/kg
Remaining (T = 60 min) ([2]; Rat liver microsomes): 113%
T1/2 ([2]; Rat liver microsomes): >2.42 h
Remaining (T = NCF60 min) ([2]; Rat liver microsomes): 83.1%

CNC(=O)C1C(O)CC2(O)CC(O)CC(O)C(O)CCC(O)CC(O)CC(=O)OC(C)C(C)C(O)C(C)C=CC=CC=CC=CC=CC=CC=CC(OC3OC(C)C(O)C(N)C3O)CC1O2 (centres unmarked) [AN]
% Remaining at 120 min (Plasma Stability; Human Plasma): 106%
Half Life (Plasma Stability; Human Plasma): >4.82 h
% Remaining at 120 min (Plasma Stability; Rat Plasma): 118%
Half Life (Plasma Stability; Rat Plasma): >4.82 h
CL ([2]; Dog liver microsomes): <9.6 µL/min/mg
CLint ([2]; Dog liver microsomes): <14 mL/min/kg
Remaining (T = 60 min) ([2]; Dog liver microsomes): 92.4%
T1/2 ([2]; Dog liver microsomes): >2.42 h
Remaining (T = NCF60 min) ([2]; Dog liver microsomes): 113%
CL ([2]; Human liver microsomes): <9.6 µL/min/mg
CLint ([2]; Human liver microsomes): <8.6 mL/min/kg
Remaining (T = 60 min) ([2]; Human liver microsomes): 104%
T1/2 ([2]; Human liver microsomes): >2.42 h
Remaining (T = NCF60 min) ([2]; Human liver microsomes): 127%
CL ([2]; Monkey liver microsomes): <9.6 µL/min/mg
CLint ([2]; Monkey liver microsomes): <13 mL/min/kg
Remaining (T = 60 min) ([2]; Monkey liver microsomes): 139%
T1/2 ([2]; Monkey liver microsomes): >2.42 h
Remaining (T = NCF60 min) ([2]; Monkey liver microsomes): 135%
CL ([2]; Mouse liver microsomes): <9.6 µL/min/mg
CLint ([2]; Mouse liver microsomes): <38 mL/min/kg
Remaining (T = 60 min) ([2]; Mouse liver microsomes): 102%
T1/2 ([2]; Mouse liver microsomes): >2.42 h
Remaining (T = NCF60 min) ([2]; Mouse liver microsomes): 131%
CL ([2]; Rat liver microsomes): <9.6 µL/min/mg
CLint ([2]; Rat liver microsomes): <17 mL/min/kg
Remaining (T = 60 min) ([2]; Rat liver microsomes): 106%
T1/2 ([2]; Rat liver microsomes): >2.42 h
Remaining (T = NCF60 min) ([2]; Rat liver microsomes): 93%

CC1C=CC=CC=CC=CC=CC=CC=CC(OC2OC(C)C(O)C(N)C2O)CC2OC(O)(CC(O)CC(O)C(O)CCC(O)CC(O)CC(=O)OC(C)C(C)C1O)CC(O)C2C(=O)NC1CC1 (centres unmarked) [AR3]
MIC A. fumigatus 1163 (A. fumigatus 1163): 500 µM (≈ 482 µg/mL)
MIC C. tropicalis (C. tropicalis): 250 µM (≈ 241 µg/mL)
MIC C. albicans (C. albicans): 250 µM (≈ 241 µg/mL)
Average MIC [1]: 438 µM
MIC C. krusei (C. krusei): 250 µM (≈ 241 µg/mL)

CC1C=CC=CC=CC=CC=CC=CC=CC(OC2OC(C)C(O)C(N)C2O)CC2OC(O)(CC(O)CC(O)C(O)CCC(O)CC(O)CC(=O)OC(C)C(C)C1O)CC(O)C2C(=O)NC1CCC1 (centres unmarked) [AR4]
MIC A. fumigatus 1163 (A. fumigatus 1163): 1000 µM (≈ 977 µg/mL)
MIC C. tropicalis (C. tropicalis): 500 µM (≈ 489 µg/mL)
Average MIC [1]: 750 µM
MIC C. krusei (C. krusei): 550 µM (≈ 537 µg/mL)
MIC C. albicans SN250 (C. albicans SN250): 500 µM (≈ 489 µg/mL)
